Laboratory results reported in patent US12383527B2, “Methods for treating triple negative breast cancer using salvianolic acid B” (HOWARD UNIVERSITY, priority 2018, dated 2025).

Experiments:
[1] = system: survivin; experiment: Western blot of survivin expression in MDA and MCF-7 cells; format: cell-based, human; conditions: doxorubicin 0.1 μM and 1 μM, 24 hours
Protocol: (§1) The immunohistochemical results were consistent with those from Western blotting (FIG. 7, panel A). Western blot analysis was used to determine the expression of apoptosis-related proteins Bcl-XL, survivin, caspase-3 and caspase-8 (FIG. 7, panel A). β-actin was used as an internal control for Western blotting. The MCD-7 and MDA cells were treated with Sal-B (50 μM and 100 μM) and doxorubicin (0.1 μM and 1 μM), respectively, for 24 hours. Proteins were extracted from the cells with RIPA lysis buffer (Santa Cruz Biotechnology, Santa Cruz, CA) and the protein concentrations were quantified with Bio-Rad protein quantification kit. Whole-cell proteins were separated on 8% SDS-polyacrylamide gel, transferred to the polyvinylidene difluoride membrane (Bio-Rad), and then probed with the indicated primary antibodies overnight at 4° C. Washed blots were then incubated with horseradish peroxidase-conjugated anti-rabbit, anti-mouse, or anti-goat antibody (Santa Cruz Biotechnology), respectively, for one hour at room temperature. Blots were developed and visualized with ECL detection system (Bio-Rad).

[2] = system: proliferating cell nuclear antigen (PCNA); experiment: Immunohistochemical staining of PCNA in MDA tumor xenografts; format: in vivo, athymic nude mice; conditions: doxorubicin 4 mg/kg every four weeks; versus untreated; P<0.05
Protocol: (§2) Human tumor xenografts in athymic nude mice. […] The animal protocol was approved by the Howard University Animal Care and Use Committee. Four-week-old female athymic nude mice (Nu/Nu) were obtained from Harlan Sprague Dawley (Indianapolis, IN). All mice were provided the Harlan Teklad #2018 Global 18% protein rodent diet and water ad libitum. Mice were housed in temperature-controlled rooms (74±2° F.) with a 12-hour alternating light-dark cycle. MDA cells (3×10^6/50 μL/spot) were subcutaneously injected into the both sides of lower back of mice using a 27-gauge needle. […]
(§3) Immunohistochemical staining was performed as described previously (Hao Y, et al., “Enforced expression of miR-101 inhibits prostate cancer cell growth by modulating the COX-2 pathway in vivo,” Cancer Prev Res (Phila), 2011; 4: 1073-1083). […] For the quantification, ten high-magnification (40×) fields were randomly selected from each slide of tumors and the positive cells were counted. The protein expression was expressed as the average number of positive cells per high magnification field.

[3] = system: survivin; experiment: Immunohistochemical staining of survivin in MDA tumor xenografts; format: in vivo, athymic nude mice; conditions: doxorubicin 4 mg/kg every four weeks; versus untreated group
Protocol: as §2, §3

[4] = system: ceramides; experiment: Immunohistochemistry of ceramides in MDA tumor xenografts; format: in vivo, athymic nude mice; conditions: doxorubicin 4 mg/kg every four weeks; untreated control 2.3±0.7; P<0.05
Protocol: as §2
Immunohistochemical staining was performed as described previously (Hao Y, et al., “Enforced expression of miR-101 inhibits prostate cancer cell growth by modulating the COX-2 pathway in vivo,” Cancer Prev Res (Phila), 2011; 4: 1073-1083). […] For the quantification, ten high-magnification (40×) fields were randomly selected from each slide of tumors and the positive cells were counted. The protein expression was expressed as the average number of positive cells per high magnification field. […]

[5] = system: cyclin A; experiment: Western blot of cyclin A expression in MDA and MCF-7 cells; format: cell-based, human; conditions: doxorubicin 1 μM, 24 hours
Protocol: (§4) The expression of two cell cycle-related proteins—cyclin A and cyclin B1—was checked by Western blot. The expression of cyclin A and cyclin B1 was normalized by the expression of the internal control β-actin (lower panel). The cells were treated with 50 μM and 100 μM Sal-B, respectively, for 24 hours. Doxorubicin (0.1 μM and 1 μM) was used as a control. […] The results may be explained by that the cell cycle progression is controlled by a large set of molecules, although cyclin B1 is a key component in the control of cell cycle progression from G2 to M phase.
as §1, with “Washed blots were then incubated with horseradish peroxidase-conjugated anti-rabbit, anti-mouse, or anti-goat antibody (Santa Cruz Biotechnology), respectively, for one hour at room temperature. Blots were developed and visualized with ECL detection system (Bio-Rad).” left out

[6] = system: MDA tumor xenografts; experiment: TUNEL assay of apoptotic cells in MDA tumor xenografts; format: in vivo, athymic nude mice; conditions: doxorubicin 4 mg/kg every four weeks; untreated tumors 3.1±1.8; P<0.05
Protocol: as §2
Apoptotic cells in MDA tumor xenografts were also analyzed by a terminal deoxynucleotidyl transferase-mediated dUTP nick end labeling (TUNEL) assay using the TdT-FragEL DNA Fragmentation Detection Kit (EMD Millipore, Burlington, MA) as previously described (Li H, et al., “Cellular uptake and anticancer activity of salvianolic acid B phospholipid complex loaded nanoparticles in head and neck cancer and precancer cells,” Colloids Surf B Biointerfaces. 2016; 147: 65-72). […]

[7] = system: Bcl-xL; experiment: Immunohistochemical staining of Bcl-xL in MDA tumor xenografts; format: in vivo, athymic nude mice; conditions: doxorubicin 4 mg/kg every four weeks; versus untreated tumors; P<0.05
Protocol: as §2, §3

[8] = system: MCF-7 cells; experiment: Luciferase assay (bioluminescent cell viability); format: cell-based, human; conditions: 24 hours
Protocol: (§5) Cell lines and culture. MCF-7 and MDA human breast cancer cell lines stably transfected with firefly luciferase gene were purchased from Caliper Life Sciences (Hanover, MD). MCF-7 cells were cultured in DMEM medium (Invitrogen, Carlsbad, CA) and MDA cells were grown in DMEM/F-12 (1:1) medium (Invitrogen). Both media were supplemented with 10% fetal bovine serum (Invitrogen) and antibiotic-antimycotic mixture (100 IU/ml penicillin and 100 μg/ml streptomycin; Cellgro). The cells were maintained at 37° C. in 5% CO2. All experiments were performed when the cells were in the logarithmic phase of growth. Luciferase assay. The MDA cell line and the hormone receptor-positive MCF-7 cell line were utilized to test the effectiveness of Sal-B and doxorubicin on cancer cell viability. Both cell lines had been stably transfected and expressed the firefly luciferase gene. The bioluminescent signal intensity reflects the cell metabolic activity, being highly correlated with the cell viability. Cell viability was evaluated using the sensitive bioluminescent optical imaging. The cells (10,000 per well) were seeded in flat-bottomed 96-well plates in the above-identified medium with 10% fetal bovine serum and allowed to grow overnight. The old medium was then replaced with fresh medium containing different concentrations of Sal-B (50, 100, 150, and 200 μM) or doxorubicin (0.1, 0.2, 0.5, and 1 μM). The cells were further cultured for 24 hours and D-luciferin was added to each well and mixed gently (final concentration of 150 μ/ml). The signal was measured with the Xenogen IVIS 200 imaging system (Caliper Life Sciences, Hopkinton, MA, USA). The system was equipped with a highly sensitive, cooled charge-coupled device (CCD) camera and a light-tight specimen box. Imaging and quantification of signals was controlled by the acquisition and analysis software Living Image 3.0. The bioluminescent signal from the cells in each well was expressed as total flux (photons per second (p/s)). At least five replicates were performed in each experiment, and each experiment was repeated at least three times. The representative data are presented.

[9] = system: MDA-MB-231 cells; experiment: Luciferase assay (bioluminescent cell viability); format: cell-based, human; conditions: MDA cells, 24 hours
Protocol: as §5

[10] = system: Bcl-xL; experiment: Western blot of Bcl-xL expression in MDA and MCF-7 cells; format: cell-based, human; conditions: doxorubicin 0.1 μM and 1 μM, 24 hours
Protocol: as §1

[11] = system: cyclin B1; experiment: Western blot of cyclin B1 expression in MDA and MCF-7 cells; format: cell-based, human; conditions: doxorubicin 1 μM, 24 hours
Protocol: as §4, §1

[12] = system: MDA tumor xenografts; experiment: Human tumor xenografts in athymic nude mice, tumor weight; format: in vivo; conditions: doxorubicin 4 mg/kg every four weeks, intraperitoneal; day 37; mean±SD; untreated control 0.81±0.12 g
Protocol: Human tumor xenografts in athymic nude mice. […] The animal protocol was approved by the Howard University Animal Care and Use Committee. Four-week-old female athymic nude mice (Nu/Nu) were obtained from Harlan Sprague Dawley (Indianapolis, IN). All mice were provided the Harlan Teklad #2018 Global 18% protein rodent diet and water ad libitum. Mice were housed in temperature-controlled rooms (74±2° F.) with a 12-hour alternating light-dark cycle. MDA cells (3×10^6/50 μL/spot) were subcutaneously injected into the both sides of lower back of mice using a 27-gauge needle. On day 10 after cell implantation, the mice with tumors (˜5 mm in diameter) were randomly divided into Sal-B treated, doxorubicin treated, and untreated groups (five mice per group), and were administrated Sal-B (80 mg/kg, three times per week), doxorubicin (4 mg/kg, every four weeks) and 0.9% saline (50 μl, three times per week), respectively, by intraperitoneal injection for a total of 37 days. […] All mice were sacrificed on day 37.

[13] = system: ER-α; experiment: Western blot of ER-α expression in MCF-7 cells; format: cell-based, human; conditions: doxorubicin at the high dose (1 μM)

COc1cccc2c1C(=O)c1c(O)c3c(c(O)c1C2=O)C[C@@](O)(C(=O)CO)C[C@@H]3O[C@H]1C[C@H](N)[C@H](O)[C@H](C)O1 [doxorubicin, reference compound]
survivin protein expression ([1]; MCF-7 cells): downregulated
survivin protein expression ([1]; MDA cells): downregulated
PCNA levels in tumor xenografts [2]: higher in untreated MDA tumor xenografts
survivin level in tumors [3]: decreasing
ceramide levels in tumor xenografts (ceramide positive cells counted) [4]: 6.2±1.3
cyclin A expression (normalized to β-actin) ([5]; MCF-7 cells): reduction
cyclin A expression (normalized to β-actin) ([5]; MDA cells): reduction
number of apoptotic cells (TUNEL) [6]: 9.0±2.1
expression of Bcl-xL in tumors [7]: decreased expression
cytotoxicity at 0.5 µM ([8]; Homo sapiens, MCF7, MCF-7 cells, doxorubicin 0.5 μM, read-out: reduction of cell viability): ~67%
further reduction of cell viability versus 0.5 μM ([8]; MCF-7 cells, doxorubicin 1 μM): No further reduction
effect on cell viability, MCF-7 cells relative to MDA cells ([8]; doxorubicin 1 μM): approximately two-fold
cytotoxicity at 0.5 µM ([9]; Homo sapiens, MDA-MB-231, doxorubicin 0.5 μM, read-out: reduction of cell viability): 25%
further reduction of cell viability versus 0.5 μM ([9]; doxorubicin 1 μM): No further reduction
Bcl-xL protein expression ([10]; MCF-7 cells): downregulated
Bcl-xL protein expression ([10]; MDA cells): downregulated
cyclin B1 expression (normalized to β-actin) ([11]; MCF-7 cells): reduction
cyclin B1 expression (normalized to β-actin) ([11]; MDA cells): reduction
average tumor weight [12]: 0.34 ± 0.09 g
ER-α protein level (normalized to β-actin) [13]: decreased
